Laboratory results as given in patent US20050113292A1 (priority 2003, published 2005).
Like-named read-outs stand apart in the source and are kept apart here.

Key:
HIV-1 = type: cell-based
[1] = system: HIV-1 mediated cell-cell fusion (R8 virus)
T-tropic (R8) HIV-1 = conditions: for IC50: T-tropic (R8)
M-tropic (BAL) HIV-1 = conditions: for IC50: M-tropic (BAL)
R9 HIV-1 virus = type: cell-based
[2] = target: gp41 of T-tropic HIV-1 R8 virus (HIV-1 (R8)); assay: cell-based or functional assay
[3] = mediated cell-cell fusion (R8 virus)

Compound	Neutralization (%) (HIV-1)	fold increase over monomer, cell-cell fusion [1] [fold]	EC50 [1, 3] [nM]	IC50 [1, 3] [nM]	fold increase of potency over monomer, R8 virus (T-tropic (R8) HIV-1) [fold]	fold increase of potency over monomer, BAL virus (M-tropic (BAL) HIV-1) [fold]	IC50 (M-tropic (BAL) HIV-1) [nM]	IC50 (T-tropic (R8) HIV-1) [nM]	percentage of inhibition of cell infection (R9 HIV-1 virus; 6 μM)	percentage of inhibition of cell infection (R9 HIV-1 virus; 200 μM) [%]	IC50, HIV-1 mediated cell-cell fusion (syncytium formation), R8 virus [2] [nM]
CC[C@H](C)[C@H](NC(=O)[C@H](CC(C)C)NC(=O)[C@H](CO)NC(=O)[C@H](Cc1c[nH]cn1)NC(=O)[C@@H](NC(=O)[C@H](CC(C)C)NC(=O)[C@H](CO)NC(=O)[C@@H](NC(=O)[C@H](Cc1ccc(O)cc1)NC(=O)[C@H](CC(N)=O)NC(=O)[C@H](CC(N)=O)NC(=O)[C@@H](NC(=O)[C@H](CCC(=O)O)NC(=O)[C@H](CCCNC(=N)N)NC(=O)[C@H](CC(=O)O)NC(=O)[C@H](Cc1c[nH]c2ccccc12)NC(=O)[C@H](CCC(=O)O)NC(=O)[C@H](CCSC)NC(=O)[C@@H]1Cc2c([nH]c3ccccc23)C(C(=O)NCCCC[C@H](NC(=O)CCNC(=O)C2N[C@H](C(=O)N[C@@H](CCSC)C(=O)N[C@@H](CCC(=O)O)C(=O)N[C@@H](Cc3c[nH]c4ccccc34)C(=O)N[C@@H](CC(=O)O)C(=O)N[C@@H](CCCNC(=N)N)C(=O)N[C@@H](CCC(=O)O)C(=O)N[C@H](C(=O)N[C@@H](CC(N)=O)C(=O)N[C@@H](CC(N)=O)C(=O)N[C@@H](Cc3ccc(O)cc3)C(=O)N[C@H](C(=O)N[C@@H](CO)C(=O)N[C@@H](CC(C)C)C(=O)N[C@H](C(=O)N[C@@H](Cc3c[nH]cn3)C(=O)N[C@@H](CO)C(=O)N[C@@H](CC(C)C)C(=O)N[C@H](C(=O)N[C@@H](CCC(=O)O)C(=O)N[C@@H](CCC(=O)O)C(=O)N[C@@H](CO)C(=O)N[C@@H](CCC(N)=O)C(=O)N[C@@H](CC(N)=O)C(=O)N[C@@H](CCC(N)=O)C(=O)N[C@@H](CCC(N)=O)C(=O)N[C@@H](CCC(=O)O)C(=O)N[C@@H](CCCCN)C(=O)N[C@@H](CC(N)=O)C(=O)N[C@@H](CCC(=O)O)C(=O)N[C@@H](CCC(N)=O)C(=O)N[C@@H](CCC(=O)O)C(=O)N[C@@H](CC(C)C)C(=O)N[C@@H](CC(C)C)C(=O)O)[C@@H](C)CC)[C@@H](C)CC)[C@@H](C)O)[C@@H](C)CC)Cc3c2[nH]c2ccccc32)C(=O)N[C@@H](CO)C(=O)N[C@@H](CO)C(=O)N[C@@H](C)C(N)=O)N1)[C@@H](C)CC)[C@@H](C)O)[C@@H](C)CC)C(=O)N[C@@H](CCC(=O)O)C(=O)N[C@@H](CCC(=O)O)C(=O)N[C@@H](CO)C(=O)N[C@@H](CCC(N)=O)C(=O)N[C@@H](CC(N)=O)C(=O)N[C@@H](CCC(N)=O)C(=O)N[C@@H](CCC(N)=O)C(=O)N[C@@H](CCC(=O)O)C(=O)N[C@@H](CCCCN)C(=O)N[C@@H](CC(N)=O)C(=O)N[C@@H](CCC(=O)O)C(=O)N[C@@H](CCC(N)=O)C(=O)N[C@@H](CCC(=O)O)C(=O)N[C@@H](CC(C)C)C(=O)N[C@@H](CC(C)C)C(=O)O (stereo partly drawn) [Compound 2α-C34]	<5	74	0.47	0.47	42	45	0.09				
CC[C@H](C)[C@H](NC(=O)[C@H](CC(C)C)NC(=O)[C@H](CO)NC(=O)[C@H](Cc1c[nH]cn1)NC(=O)[C@@H](NC(=O)[C@H](CC(C)C)NC(=O)[C@H](CO)NC(=O)[C@@H](NC(=O)[C@H](Cc1ccc(O)cc1)NC(=O)[C@H](CC(N)=O)NC(=O)[C@H](CC(N)=O)NC(=O)[C@@H](NC(=O)[C@@H]1CSC(C(=O)NCCCC[C@H](NC(=O)CCNC(=O)C2N[C@H](C(=O)N[C@H](C(=O)N[C@@H](CC(N)=O)C(=O)N[C@@H](CC(N)=O)C(=O)N[C@@H](Cc3ccc(O)cc3)C(=O)N[C@H](C(=O)N[C@@H](CO)C(=O)N[C@@H](CC(C)C)C(=O)N[C@H](C(=O)N[C@@H](Cc3c[nH]cn3)C(=O)N[C@@H](CO)C(=O)N[C@@H](CC(C)C)C(=O)N[C@H](C(=O)N[C@@H](CCC(=O)O)C(=O)N[C@@H](CCC(=O)O)C(=O)N[C@@H](CO)C(=O)N[C@@H](CCC(N)=O)C(=O)N[C@@H](CC(N)=O)C(=O)N[C@@H](CCC(N)=O)C(=O)N[C@@H](CCC(N)=O)C(=O)N[C@@H](CCC(=O)O)C(=O)N[C@@H](CCCCN)C(=O)N[C@@H](CC(N)=O)C(=O)N[C@@H](CCC(=O)O)C(=O)N[C@@H](CCC(N)=O)C(=O)N[C@@H](CCC(=O)O)C(=O)N[C@@H](CC(C)C)C(=O)N[C@@H](CC(C)C)C(=O)O)[C@@H](C)CC)[C@@H](C)CC)[C@@H](C)O)[C@@H](C)CC)CS2)C(=O)N[C@@H](CCCCNC(=O)CNC(=O)C2N[C@H](C(=O)N[C@H](C(=O)N[C@@H](CC(N)=O)C(=O)N[C@@H](CC(N)=O)C(=O)N[C@@H](Cc3ccc(O)cc3)C(=O)N[C@H](C(=O)N[C@@H](CO)C(=O)N[C@@H](CC(C)C)C(=O)N[C@H](C(=O)N[C@@H](Cc3c[nH]cn3)C(=O)N[C@@H](CO)C(=O)N[C@@H](CC(C)C)C(=O)N[C@H](C(=O)N[C@@H](CCC(=O)O)C(=O)N[C@@H](CCC(=O)O)C(=O)N[C@@H](CO)C(=O)N[C@@H](CCC(N)=O)C(=O)N[C@@H](CC(N)=O)C(=O)N[C@@H](CCC(N)=O)C(=O)N[C@@H](CCC(N)=O)C(=O)N[C@@H](CCC(=O)O)C(=O)N[C@@H](CCCCN)C(=O)N[C@@H](CC(N)=O)C(=O)N[C@@H](CCC(=O)O)C(=O)N[C@@H](CCC(N)=O)C(=O)N[C@@H](CCC(=O)O)C(=O)N[C@@H](CC(C)C)C(=O)N[C@@H](CC(C)C)C(=O)O)[C@@H](C)CC)[C@@H](C)CC)[C@@H](C)O)[C@@H](C)CC)CS2)C(=O)N[C@@H](CO)C(=O)N[C@@H](CO)C(=O)N[C@@H](C)C(N)=O)N1)[C@@H](C)CC)[C@@H](C)O)[C@@H](C)CC)C(=O)N[C@@H](CCC(=O)O)C(=O)N[C@@H](CCC(=O)O)C(=O)N[C@@H](CO)C(=O)N[C@@H](CCC(N)=O)C(=O)N[C@@H](CC(N)=O)C(=O)N[C@@H](CCC(N)=O)C(=O)N[C@@H](CCC(N)=O)C(=O)N[C@@H](CCC(=O)O)C(=O)N[C@@H](CCCCN)C(=O)N[C@@H](CC(N)=O)C(=O)N[C@@H](CCC(=O)O)C(=O)N[C@@H](CCC(N)=O)C(=O)N[C@@H](CCC(=O)O)C(=O)N[C@@H](CC(C)C)C(=O)N[C@@H](CC(C)C)C(=O)O (stereo partly drawn) [Compound 3α-C27]				2.8			0.5	380			
CC[C@H](C)[C@H](NC(=O)CNC(=O)[C@H](Cc1c[nH]c2ccccc12)NC(=O)[C@@H](NC(=O)[C@@H](NC(=O)[C@H](CC(C)C)NC(=O)[C@H](CCC(N)=O)NC(=O)[C@H](CC(C)C)NC(=O)[C@H](CC(C)C)NC(=O)[C@H](Cc1c[nH]cn1)NC(=O)[C@H](CCC(N)=O)NC(=O)[C@H](CCC(N)=O)NC(=O)[C@H](C)NC(=O)[C@H](CCC(=O)O)NC(=O)[C@@H](NC(=O)[C@H](C)NC(=O)[C@H](CCCNC(=N)N)NC(=O)[C@H](CC(C)C)NC(=O)[C@H](CC(C)C)NC(=O)[C@H](CC(N)=O)NC(=O)[C@H](CC(N)=O)NC(=O)[C@H](CCC(N)=O)NC(=O)[C@H](CCC(N)=O)NC(=O)[C@H](CCC(N)=O)NC(=O)[C@@H](NC(=O)[C@@H](NC(=O)CNC(=O)[C@H](CO)NC(=O)[C@@H]1CSC(C(=O)NCCCC[C@H](NC(=O)CCNC(=O)C2N[C@H](C(=O)N[C@@H](CO)C(=O)NCC(=O)N[C@H](C(=O)N[C@H](C(=O)N[C@@H](CCC(N)=O)C(=O)N[C@@H](CCC(N)=O)C(=O)N[C@@H](CCC(N)=O)C(=O)N[C@@H](CC(N)=O)C(=O)N[C@@H](CC(N)=O)C(=O)N[C@@H](CC(C)C)C(=O)N[C@@H](CC(C)C)C(=O)N[C@@H](CCCNC(=N)N)C(=O)N[C@@H](C)C(=O)N[C@H](C(=O)N[C@@H](CCC(=O)O)C(=O)N[C@@H](C)C(=O)N[C@@H](CCC(N)=O)C(=O)N[C@@H](CCC(N)=O)C(=O)N[C@@H](Cc3c[nH]cn3)C(=O)N[C@@H](CC(C)C)C(=O)N[C@@H](CC(C)C)C(=O)N[C@@H](CCC(N)=O)C(=O)N[C@@H](CC(C)C)C(=O)N[C@H](C(=O)N[C@H](C(=O)N[C@@H](Cc3c[nH]c4ccccc34)C(=O)NCC(=O)N[C@H](C(=O)N[C@@H](CCCCN)C(=O)N[C@@H](CCC(N)=O)C(=O)N[C@@H](CC(C)C)C(=O)N[C@@H](CCC(N)=O)C(=O)N[C@@H](C)C(=O)N[C@@H](CCCNC(=N)N)C(=O)N[C@H](C(=O)N[C@@H](CC(C)C)C(=O)O)[C@@H](C)CC)[C@@H](C)CC)C(C)C)[C@@H](C)O)[C@@H](C)CC)C(C)C)[C@@H](C)CC)CS2)C(=O)N[C@@H](CCCCNC(=O)CNC(=O)C2N[C@H](C(=O)N[C@@H](CO)C(=O)NCC(=O)N[C@H](C(=O)N[C@H](C(=O)N[C@@H](CCC(N)=O)C(=O)N[C@@H](CCC(N)=O)C(=O)N[C@@H](CCC(N)=O)C(=O)N[C@@H](CC(N)=O)C(=O)N[C@@H](CC(N)=O)C(=O)N[C@@H](CC(C)C)C(=O)N[C@@H](CC(C)C)C(=O)N[C@@H](CCCNC(=N)N)C(=O)N[C@@H](C)C(=O)N[C@H](C(=O)N[C@@H](CCC(=O)O)C(=O)N[C@@H](C)C(=O)N[C@@H](CCC(N)=O)C(=O)N[C@@H](CCC(N)=O)C(=O)N[C@@H](Cc3c[nH]cn3)C(=O)N[C@@H](CC(C)C)C(=O)N[C@@H](CC(C)C)C(=O)N[C@@H](CCC(N)=O)C(=O)N[C@@H](CC(C)C)C(=O)N[C@H](C(=O)N[C@H](C(=O)N[C@@H](Cc3c[nH]c4ccccc34)C(=O)NCC(=O)N[C@H](C(=O)N[C@@H](CCCCN)C(=O)N[C@@H](CCC(N)=O)C(=O)N[C@@H](CC(C)C)C(=O)N[C@@H](CCC(N)=O)C(=O)N[C@@H](C)C(=O)N[C@@H](CCCNC(=N)N)C(=O)N[C@H](C(=O)N[C@@H](CC(C)C)C(=O)O)[C@@H](C)CC)[C@@H](C)CC)C(C)C)[C@@H](C)O)[C@@H](C)CC)C(C)C)[C@@H](C)CC)CS2)C(=O)N[C@@H](CO)C(=O)N[C@@H](CO)C(=O)N[C@@H](C)C(N)=O)N1)[C@@H](C)CC)C(C)C)[C@@H](C)CC)[C@@H](C)O)C(C)C)C(=O)N[C@@H](CCCCN)C(=O)N[C@@H](CCC(N)=O)C(=O)N[C@@H](CC(C)C)C(=O)N[C@@H](CCC(N)=O)C(=O)N[C@@H](C)C(=O)N[C@@H](CCCNC(=N)N)C(=O)N[C@H](C(=O)N[C@@H](CC(C)C)C(=O)O)[C@@H](C)CC (stereo partly drawn) [Compound 3α-N36]				39			7.2	55.4	around 10%	~100	
N36 (from UniProt P04578 546-581) (peptide)											> 1000
